Laboratory results taken from article PMC5259791 (Scientific Reports, 2017).
Entries after “also recorded” stand apart in the source; their conditions may differ.

Legend:
PPARγ = target: T1, PPARγ (Homo sapiens, UniProt P37231); test: SPR on immobilized PPARγ; format: binding; conditions: SPR, immobilized PPARγ
T1 sequence (P37231 195-477 isoform P37231-2 limits assumed): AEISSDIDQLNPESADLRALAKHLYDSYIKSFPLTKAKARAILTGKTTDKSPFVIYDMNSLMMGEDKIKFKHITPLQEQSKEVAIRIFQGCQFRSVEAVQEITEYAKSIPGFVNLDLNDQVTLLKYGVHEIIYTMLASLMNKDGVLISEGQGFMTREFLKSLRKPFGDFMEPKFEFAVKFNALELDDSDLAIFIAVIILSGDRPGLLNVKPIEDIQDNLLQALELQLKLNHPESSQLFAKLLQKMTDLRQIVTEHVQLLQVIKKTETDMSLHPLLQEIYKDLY
Procedure: ; SPR analysis was also performed using the immobilized PPARγ LBD to evaluate if this protein portion was involved in the interaction with 1; […]. Conversely, no affinity of the diterpene towards Hsp60 was observed (Fig. 2c).
To assess the potential of 1 to act as a PPARγ modulator, we investigated the structural and functional aspects of its interaction with this nuclear receptor. To define the structural features required by 1 for an efficient interaction with PPARγ, as a first step, we performed SPR analyses using some diterpenes displaying structural relationship with 1 (compounds 2–9, Fig. 1). […]. SPR analyses were carried out on a BIACORE 3000 instrument (GE-Healthcare). PPARα, PPARγ, PPARδ and HSP60 surfaces were prepared on research−grade CM5 sensor chips (GE Healthcare). Proteins (100 μg/ml in 10 mM CH3COONa, pH 5.0) were immobilized using a standard amine−coupling protocol, to obtain densities of 3–5 kRU. Testing compounds were dissolved in 100% DMSO to obtain 4 mM solutions, and then diluted in PBS containing variable amounts of DMSO, achieving a final DMSO concentration of 0.1%. […]. SPR experiments and data elaboration were carried out as reported elsewhere.

HT-29 cells = test: HT-29 cell growth (cell counting); conditions: GW9662 10 μM 6 h, then compound 10 μM for 24 and 48 h

Compound | KD (PPARγ) | other results
C=C1C2CCC3C(CCC4[C@@H](C(=O)O)C[C@@H](O)C[C@]43C)(C2)[C@H]1O (some centres unmarked) [Compound 4] | No binding | 
C=C1C2CCC3C(CCC4[C@@H](C(=O)OC)C[C@@H](O)C[C@]43C)(C2)[C@H]1O (some centres unmarked) [Compound 2] |  | Kd (PPARγ): 1.86 ± 0.078 µM; koff (PPARγ): 0.051 s⁻¹
C=C1C2CCC3C(CCC4[C@@H](C(=O)OC)C[C@@H](O)C[C@]43C)(C2)[C@@H]1O (some centres unmarked) [Compound 3] |  | Kd (PPARγ): 4.59 ± 0.206 µM; koff (PPARγ): 0.096 s⁻¹
C=C1C2CCC3C(CCC4[C@@H](C(=O)OC)C[C@@H](OC(C)=O)C[C@]43C)(C2)[C@H]1OC(C)=O (some centres unmarked) [Compound 6] | No binding | 
CC1CC23CC1CCC2[C@]1(C)C[C@H](C)C[C@](C)(C(=O)O)C1CC3=O (some centres unmarked) [Compound 7] | No binding | 
CN(CCOc1ccc(CC2SC(=O)NC2=O)cc1)c1ccccn1 (centres unmarked) [Rosiglitazone, reference compound] |  | cell counts after GW9662 pre-treatment versus compound alone (HT-29 cells): less pronounced effect

The next lines start with results.

KD (PPARγ) | Compound | other results
No binding | C=C1C2CCC3C(CCC4[C@@H](CO)C[C@@H](O)C[C@]43C)(C2)[C@H]1O (some centres unmarked) [Compound 5] | 
not detected; also recorded: No binding | C=C1C(=O)C23CCC4[C@@]5(C)C[C@@H](O)C[C@@]4(OC5=O)[C@@]2(C)CC[C@]1(O)C3 (some centres unmarked) [Compound 9] | 
not detected; also recorded: No binding | C=C1C(=O)C23C(O)C1CCC2C12COC3(O)C(O)C1C(C)(C)CCC2O (centres unmarked) [Compound 8] | 
